In paper PMC9963887, “Towards Radiolabeled EGFR-Specific Peptides: Alternatives to GE11” (Pharmaceuticals, 2023):

Test system: EGFR-positive A431 cells
Test: cell uptake / internalization studies on A431 cells
Format: cell-based, human
Details: 1 h incubation
Experimental: The cellular uptake was differentiated by membrane-bound and internalized activity. In these experiments, no EGFR-specific interaction of any of the radiolabeled agents [^68Ga]Ga-1–[^68Ga]Ga-11 was observed (Figure 5).
Internalization studies of [^68Ga]Ga-1–[^68Ga]Ga-11 on A431 cells. For this purpose, the A431 cells (10^6 per well) were seeded into 24-well cell culture multiwell plates (cellstar) and incubated for 2 days at 37 °C in a humidified CO2 (5%) atmosphere. Directly before the experiment, each well was washed twice with fresh internalization medium (PBS/DMEM, high glucose, 1/99, v/v), followed by the addition of internalization medium to a final volume of 1.35 mL per well. […] Afterwards, the medium was separated from the cells and each well was washed twice with 1 mL of ice-cold internalization medium, the washing solutions were added to the collected internalization medium and measured in a γ-counter (these combined solutions contain the unbound fraction). To determine the surface-bound fraction, each well was further incubated twice for 5 min with ice-cold glycine-buffer (pH 2.8, 0.05 M, 1 mL) and the supernatants were collected and measured. The internalized fraction was determined by lysing the cells twice for 5 min with sodium hydroxide solution (2 M, 1 mL), collection and measurement of the combined solutions. […]

[^125I]I-hEGF: ^125I-labeled hEGF from PerkinElmer, reference compound in cell uptake and competitor in displacement assays
activity, internalized + bound to membrane, blocked (overall cellular uptake under blocking) (blocking with 100-fold excess hEGF): 1.9%
activity, internalized + bound to membrane, unblocked (overall cellular uptake) (non-blocking conditions): 33.6%
